Measured values published in BigSolDB 2.1.

CCCc1nc2c(C)cc(-c3nc4ccccc4n3C)cc2n1Cc1ccc(-c2ccccc2C(=O)O)cc1
Conditions | solubility (mole fraction)
in acetone, 278.55 K | 4.42e-05
in acetone, 287.45 K | 5.71e-05
in acetone, 294.55 K | 7.76e-05
in acetone, 303.85 K | 9.45e-05
in acetone, 308.75 K | 0.000112
in acetone, 316.25 K | 0.000141
in acetone, 325.75 K | 0.000193
in benzene, 278.55 K | 6.95e-05
in benzene, 288.45 K | 0.000111
in benzene, 299.85 K | 0.000163
in benzene, 307.25 K | 0.000236
in benzene, 316.15 K | 0.000289
in benzene, 324.35 K | 0.000361
in benzene, 333.35 K | 0.000488
in chloroform, 278.75 K | 0.00533
in chloroform, 289.45 K | 0.00624
in chloroform, 296.95 K | 0.00701
in chloroform, 298.15 K | 0.00725
in chloroform, 303.95 K | 0.00747
in chloroform, 308.35 K | 0.00771
in chloroform, 313.15 K | 0.00799
in dichloromethane, 278.35 K | 0.0015
in dichloromethane, 286.55 K | 0.00177
in dichloromethane, 293.95 K | 0.00205
in dichloromethane, 298.05 K | 0.00216
in dichloromethane, 305.25 K | 0.00246
in dichloromethane, 308.35 K | 0.00261
in dichloromethane, 311.75 K | 0.00272
in ethanol, 277.85 K | 3.06e-05
in ethanol, 288.45 K | 4.57e-05
in ethanol, 298.45 K | 6.33e-05
in ethanol, 308.35 K | 9e-05
in ethanol, 313.45 K | 0.000117
in ethanol, 329.75 K | 0.000219
in ethanol, 333.65 K | 0.000255
in ethyl acetate, 283.65 K | 2.47e-05
in ethyl acetate, 293.35 K | 4.17e-05
in ethyl acetate, 303.65 K | 5.9e-05
in ethyl acetate, 305.35 K | 6.26e-05
in ethyl acetate, 317.95 K | 8.83e-05
in ethyl acetate, 329.45 K | 0.000123
in ethyl acetate, 333.65 K | 0.000148
in isopropanol, 288.45 K | 1.55e-05
in isopropanol, 298.05 K | 2.77e-05
in isopropanol, 309.55 K | 4.1e-05
in isopropanol, 316.55 K | 5.62e-05
in isopropanol, 321.55 K | 7.41e-05
in isopropanol, 329.55 K | 0.000106
in isopropanol, 338.35 K | 0.000157
in methanol, 278.45 K | 6.03e-05
in methanol, 288.55 K | 8.9e-05
in methanol, 299.85 K | 0.000132
in methanol, 307.35 K | 0.000153
in methanol, 313.25 K | 0.000186
in methanol, 324.85 K | 0.000271
in methanol, 330.05 K | 0.000315
in toluene, 278.65 K | 3.55e-05
in toluene, 288.45 K | 6.08e-05
in toluene, 300.05 K | 8.4e-05
in toluene, 306.35 K | 0.000125
in toluene, 316.75 K | 0.000169
in toluene, 325.85 K | 0.000225
in toluene, 334.55 K | 0.000307
